From patent US20230285570A1, “THERAPEUTICALLY USEFUL CURE-PRO MOLECULES FOR E3 LIGASE MEDIATED DEGRADATION OF PROTEINS, AND METHODS OF MAKING AND USING THEM” (CORNELL UNIVERSITY, priority 2020, published 2023)
Entries after “also recorded” stand apart in the source; their conditions may differ.

Tests used:
Format in all cases: cell-based
c-MYC [1] = molecular target: T1, c-MYC (Homo sapiens, UniProt P01106); test: CURE-PRO-mediated c-MYC degradation in MCF7 cells, Western blot; set-up: endogenous in cells
T1 sequence (P01106 whole entry): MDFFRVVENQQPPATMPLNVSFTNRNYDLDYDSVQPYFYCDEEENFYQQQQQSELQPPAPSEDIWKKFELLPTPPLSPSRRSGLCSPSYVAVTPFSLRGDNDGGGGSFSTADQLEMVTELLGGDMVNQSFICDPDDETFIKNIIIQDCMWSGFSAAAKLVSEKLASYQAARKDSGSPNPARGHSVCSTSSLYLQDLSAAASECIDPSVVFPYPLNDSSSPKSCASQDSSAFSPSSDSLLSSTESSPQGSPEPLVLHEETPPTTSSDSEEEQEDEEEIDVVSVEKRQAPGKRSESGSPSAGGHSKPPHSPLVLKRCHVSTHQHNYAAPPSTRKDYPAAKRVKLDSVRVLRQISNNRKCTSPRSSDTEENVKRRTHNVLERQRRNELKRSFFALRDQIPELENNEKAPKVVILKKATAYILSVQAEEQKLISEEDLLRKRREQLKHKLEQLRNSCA
Experimental: (§1) Namalwa, Ramosm HeLa, MCF7, or HT29 HCT116 cells (2.5-3×10^6) were treated for 24 hours with the indicated compounds solubilized in DMSO. The cells were washed in ice-cold PBS and were then lysed in RIPA lysis buffer (150 mM NaCl, 5 mM EDTA, 1% NP-40, 0.5% sodium deoxycholate, 0.1% SDS, 50 mM Tris, pH 8.0.) with Roche protease inhibitor complete cocktail and phosphatase inhibitors (10 mM sodium fluoride, 10 mM sodium pyrophosphate, 1 mM sodium orthovanadate and 20 mM β-glycerophosphate). The total protein concentrations were determined by Bradford Protein Assay (Pierce) and 10-20 μg of protein was loaded onto 4-15% Tris-Glycine gradient gels (Biorad). After standard gel electrophoresis, the separated proteins were transferred to PVDF membrane by wet transfer. The immunoblots were then blocked for 1 hour in 5% skim milk in TBST or 5% BSA in TBST, according to manufacturer's instructions, before an overnight incubation at 4° C. with indicated antibodies and membranes. Membranes were then incubated with the appropriate horseradish peroxidase-conjugated secondary antibodies (1:5,000 dilution) for 1 h at room temperature and the bands were visualized using the Clarity Max Western ECL Substrate (Biorad) and the ChemiDoc Imaging System (Biorad). Signal was detected with ECL Western Blotting Substrate (Pierce) and X-ray film processed with a Konica SRX-101 X-ray film processor or captured by Bio-Rad's Chemidoc Imaging system.
MCF7 cells (3×10^6) were treated for 24 h with the compounds solubilized in DMSO. Compounds were added at 100 nM-10 μM each. Standardized protein samples were electrophoresed and imaged as described in the immunoblotting section above. c-MYC monomer, MYC-E33 (FIG. 99) (a 10058-F4 derivatives comprising boronic acid linkers), and VHL ligands, 8304 and 8305 (VH-298 derivatives comprising diol linkers) were combined in a 1:1 ratio.

c-MYC [2] = molecular target: T1, c-MYC; test: CURE-PRO-mediated c-MYC degradation in HT29 cells, Western blot; set-up: endogenous in cells; host or cells: HT29
Experimental: as §1
HT29 cells (2.5×10^6) were treated for 24 h with the compounds solubilized in DMSO. Compounds were added at 10 nM-10 μM each, as indicated in the description of the figures. Standardized protein samples were electrophoresed and imaged as described in the immunoblotting section above. c-MYC monomers (10058-F4 derivatives comprising catechol linkers), and CRBN ligands, 8048 and 8049 (pomalidomide derivatives comprising boronic acid linkers) combined in a 1:1 ratio.
HT29 cells (2.5×10^6) were treated for 24 h with the compounds solubilized in DMSO. Compounds were added at 100 nM-10 μM each.
(§2) HT29 cells (2.5×10^6) were treated for 24 h with the compounds solubilized in DMSO. Compounds were added at 100 nM-10 μM each. Standardized protein samples were electrophoresed and imaged as described in the immunoblotting section above. c-MYC monomer, MYC-E1, (a 10058-F4 derivative comprising boronic acid linkers), and CRBN ligands, 8046, 8047 and 8066 (pomalidomide derivatives comprising diol linkers) combined in a 1:1 ratio.
as §2, with “monomers, MYC-E6 (FIG. 90), MYC-E10 (FIG. 91), and MYC-E16 (FIG. 92) (10074-G5 derivatives” for “monomer, MYC-E1, (a 10058-F4 derivative”
(§3) HT29 cells (2.5×10^6) were treated for 24 h with the compounds solubilized in DMSO. Compounds were added at 10 nM-10 μM each. Standardized protein samples were electrophoresed and imaged as described in the immunoblotting section above. c-MYC monomer, MYC-N16 (FIG. 93) (10074-G5 derivatives comprising diol linkers), and VHL ligands, 8297 and 8298 (VH-298 derivatives comprising boronic acid linkers) were combined in a 1:1 ratio.
as §3, with “monomers, MYC-E7” for “monomer, MYC-N16”, “96), MYC-E10 (FIG. 97), and MYC-E17 (FIG. 98),” for “93)”, “boronic acid” for “diol”, “diol” for “boronic acid”

c-MYC [3] = molecular target: T1, c-MYC; test: CURE-PRO-mediated c-MYC degradation in HCT1116 cells, Western blot or WES; set-up: HT29 cells (2.5×10^6) were treated for 24 h with the compounds solubilized in DMSO; endogenous in cells; host or cells: HT29; settings: 1:1 with MDM2 ligand 8310, HCT1116, 24 h, 10 nM-10 μM each
c-MYC [4] = molecular target: T1, c-MYC; test: as above; set-up: endogenous in cells; host or cells: HT29; settings: 1:1 with MDM2 ligand 8312, HCT1116, 24 h, 10 nM-10 μM each
Experimental: as §1
WES Simple analysis was performed on WES system (ProteinSimple-Biotechne) according to the manufacturer's instructions. Total protein concentrations of cell lysates were determined by the Pierce BCA kit (Thermo Fisher). 3 μL of 0.3 μg/μL of the protein lysate was loaded onto a 12- to 230-kDa WES assay plate (ProteinSimple) where 300 nL sample was withdrawn through a capillary, subjected to electrophoretic separation of proteins by size, and followed by the simultaneous, HRP-based detection of proteins using the Anti-Rabbit Detection Module (Proteinsimple: #DM-001). The electropherograms were checked then the automatic peak detection was manually corrected if it was required.
HCT1116 cells (2.5×10^6) were treated for 24 h with the compounds solubilized in DMSO. Compounds were added at 10 nM-10 μM each. Standardized protein samples were electrophoresed and imaged as described in the immunoblotting or WES (Proteinsimple) sections above. c-MYC monomers, MYC-N20 (FIG. 100, a 10074-G5 derivative comprising diol linkers), and MYC-N10 (FIG. 101), MYC-N6 (FIG. 102), and MYC-N9 (FIG. 103) (10058-F4 derivatives comprising diol linkers), and MDM2 ligands, 8310 and 8312 (Nutlin 3a derivatives comprising boronic acid linkers) were combined in a 1:1 ratio.
HCT1116 cells (2.5×10^6) were treated for 24 h with the compounds solubilized in DMSO. Compounds were added at 1 μM-10 μM each.

c-MYC [5] = molecular target: T1, c-MYC; test: Summary of C-MYC degradation by CURE-PRO pairs, estimated from Western Blot or WES; set-up: endogenous in cells; host or cells: HT29; settings: Table 11, aromatic 1,2-diol MYC ligand + 8310
How it was run: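 Degradation read-out from immunoblot with ECL, or WES capillary electrophoresis with HRP detection, of RIPA lysates. Cells (Namalwa, Ramos, HeLa, MCF7, HT29 or HCT116) were exposed to DMSO-solubilized compounds for 24 h; a check mark marks 30% to 70% or higher degradation.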

| c-MYC degradation (c-MYC [1]; 1:1 with VHL ligand 8304, MCF7, 24 h, 100 nM-10 μM each) | c-MYC degradation (c-MYC [1]; 1:1 with VHL ligand 8305, MCF7, 24 h, 100 nM-10 μM each) | c-MYC degradation (c-MYC [1]; c-MYC monomer alone, MCF7, 24 h, 100 nM-10 μM) | c-MYC degradation (c-MYC [2]; c-MYC monomer alone, HT29, 24 h, 10 nM-10 μM) | Structure (SMILES) | c-MYC degradation (c-MYC [2]; 1:1 with CRBN ligand 8048, HT29, 24 h, 10 nM-10 μM each) | c-MYC degradation (c-MYC [2]; 1:1 with CRBN ligand 8049, HT29, 24 h, 10 nM-10 μM each) | c-MYC degradation (c-MYC [3]) | c-MYC degradation (c-MYC [4]) | Degradation of C-MYC, combination with MDM2 ligand 8310 (c-MYC [5]) |
| --- | --- | --- | --- | --- | --- | --- | --- | --- | --- |
| caused partial degradation of c-MYC | no loss of c-MYC protein was observed | no loss of c-MYC protein was observed | – | CCc1ccc(/C=C2\SC(=O)N(CCNC(=O)c3ccc(B(O)O)cc3)C2=O)cc1 [MYC-E33] | – | – | – | – | – |
| – | – | – | there is no degradation of c-MYC | CCc1ccc(/C=C2\SC(=O)N(CCOCCNC(=O)c3ccc(O)c(O)c3)C2=O)cc1 [MYC-N9] | some degradation is noted; also recorded: caused degradation of c-MYC | produces greater c-MYC degradation than 8048; also recorded: caused degradation of c-MYC | caused degradation of c-MYC at higher concentrations | caused degradation of c-MYC at higher concentrations | √ (A black check mark indicates efficacy of 30% to 70% or higher protein degradation) |
